According to patent publication US7981448B2, “Methods of treating necrotizing enterocolitis” (University of Pittsburgh, priority 2002, dated 2011):

What was measured:
IEC-6 cells [1] = experiment: TNF-α/Actinomycin D-induced IEC-6 cell death, viability by cellular ATP content; type: cell-based, rat; details: for TNF-α/ActD-induced IEC-6 cell death (in words): CoPP 16 hours before
Experimental: FIG. 7 is a bar graph illustrating that CO exposure and induction of HO-1 decreases TNF-α/Actinomycin D (TNF/ActD)-induced IEC-6 cell death. Viability of TNF-α (TNF; 10 ng/ml)/Actinomycin D (ActD; 200 ng/ml)-treated IEC-6 cells was assayed after 18 hours by measuring cellular ATP content. CO treatment (CO; gray bars; 250 ppm) was initiated 1 hour prior to administration of TNF-α/ActD and maintained throughout the duration of the experiment. Cross-hatched bars=cells exposed to cobalt protoporphyrin (CoPP) 16 hours prior to exposure to TNF-α/ActD. Black bars=air exposed cells. […] Results are mean±standard error of 3 independent studies performed in triplicate.
(§1) The rat small-intestinal epithelial cell line IEC-6 was obtained from the American Type Culture Collection (Manassas, Va.). Cells were grown in Dulbecco's modified Eagle's medium with 4.5 g/L glucose (Bio-Whittaker, Walkersville, Md.) supplemented with 5% fetal bovine serum, […] (Gibco, Grand Island, N.Y.), 0.1 U/mL insulin, and 100 U/mL penicillin/100 μg/mL streptomycin at 37° C. and 10% CO2. Cells from passages 3 through 20 were used for experiments.
Cell viability was determined by measuring ATP levels (CellTiter-Glo™; Promega) as per the manufacturer's protocol.
To determine whether HO-1 or CO inhibits cell death in vitro, the rat intestinal epithelial cell line IEC-6 was utilized. Cell death was induced by treating these cells with TNF-α (10 ng/ml) plus actinomycin D (ActD; 200 ng/ml). Cell viability was analyzed by crystal violet staining of adherent cells and assessment of cellular ATP content. TNF-α/ActD decreased IEC-6 cell viability to 24±2.1% that of untreated controls (FIG. 7; P<0.05).

IL-1β [2] = experiment: Serum cytokine determination by ELISA (IL-1β); type: in vivo, rat; details: H/F neonatal rats + CO 250 ppm; 18.5 fold in H/F without CO
Experimental: (§2) Pregnant time-dated Sprague-Dawley rats were induced at term using subcutaneous injection of Pitocin (1 U). Immediately after birth (day zero), the neonates were weighed and randomized into two main groups. Animals were either left with their mothers and thus breast-fed, or separated from their mothers, housed in an incubator (Ohio Medical Products, Madison, Wis.), gavage fed with a special rodent formula two times daily, and subjected to 10 minutes of hypoxia (5% O2, 95% N2; PraxAir, Pittsburgh, Pa.) prior to each feeding. The formula consisted of 15 g Similac® 60/40 (Ross Pediatrics, Colombus, Ohio) in 75 mL of Esbilac® canine milk replacement (Pet-Ag Inc., Hampshire, Ill.). Rats from each group were further randomized to receive no additional treatment or one-hour per day CO treatment (250 parts per million; ppm, days 1-3). CO was delivered as described below. The neonatal rats were sacrificed on day four. The intestines were inspected for gross necrotic changes and pneumatosis intestinalis. The last 2 cm of terminal ileum was harvested for morphological studies, and mucosal scrapings were collected for detection of protein.
(§3) Animals were exposed to CO at a concentration of 250 ppm. Briefly, 1% CO in air was mixed with air (21% oxygen) in a stainless steel mixing cylinder and then directed into a 3.70 ft^3 glass exposure chamber at a flow rate of 12 L/min. […]

TNF-α = experiment: Serum cytokine determination by ELISA (TNF-α); type: in vivo, rat; details: H/F neonatal rats + CO 250 ppm; 33.2 fold in H/F without CO
Experimental: as §2, §3

neonatal rat ileum [3] = experiment: Animal model of necrotizing enterocolitis: gross and microscopic pathology of ileum; type: in vivo; details: for Gross Changes (n): Bowel wall necrosis / Gross Changes (n): Pneumatosis intestinalis / Microscopic Changes (n): Stromal neutrophils / Microscopic Changes (n): Vacuolization / Microscopic Changes (n): Villous atrophy: day 4 of life
Experimental: as §2
Animals were exposed to CO at a concentration of 250 ppm. Briefly, 1% CO in air was mixed with air (21% oxygen) in a stainless steel mixing cylinder and then directed into a 3.70 ft^3 glass exposure chamber at a flow rate of 12 L/min. A CO analyzer (Interscan, Chatsworth, Calif.) was used to measure CO levels continuously in the chamber. CO concentrations were maintained at 250 ppm at all times. Rats were placed in the exposure chamber as required.
Intestinal specimens were harvested as described above. Hematoxylin and eosin (H&E) slides were prepared as per standard protocol and examined by light microscopy. The presence of morphological changes in the intestinal epithelium, including separation of the villous core, submucosal edema, and epithelial sloughing, were determined by a pathologist in a blinded fashion.

iNOS [4] = experiment: Western blot of ileal mucosal lysates (iNOS); type: in vivo, rat; details: H/F neonatal rats + CO, ileal mucosa
Experimental: as §2, with “The last 2 cm of terminal ileum was harvested for morphological studies, and mucosal scrapings were collected for detection of protein.” left out
(§4) IEC-6 cells or ileal mucosal scrapings were collected in lysis buffer containing 20 mmol/L Tris with 100 μmol/L phenylmethylsulfonylfluoride (Sigma), 1 μmol/L leupeptin (Sigma), and 1 μmol/L sodium orthovanadate (Sigma). Protein was quantified by bicinchoninic acid (BCA) protein assay (Pierce, Rockford, Ill.). […]

rat iNOS promoter = experiment: Rat iNOS promoter-luciferase reporter assay in IEC-6 cells; type: cell-based; details: IEC-6, LPS 100 ng/ml + 1% oxygen + CO; 4.9±0.3 fold without CO
Experimental: FIG. 8B is a bar graph illustrating that rat iNOS promoter activity in LPS (100 ng/ml)/hypoxia (1% oxygen; lps/hypoxia)-treated IEC-6 cells is limited by exposure to CO. Cells were assayed for luciferase activity. […] CO limited this transcriptional activation to a 1.7±0.2 fold increase (P<0.05). Results are mean±standard error of 3 independent studies performed in triplicate.
as §1
pGL3/2 rat iNOS promoter-luciferase reporter was constructed as described in Beck et al., FEBS Lett 435:35-38 (1998). IEC-6 cells grown in 35 mm wells were transfected with 4 μL Lipofectamine2000® (Invitrogen), 0.15 μg pGL3/2 DNA and 0.5 μg pIEP-LacZ DNA, which was used as a control for transfection efficiency. Twenty-four hours following transfection, cells were treated for 6 hours, then lysates were collected and a luciferase assay (Promega) was performed with a luminometer (Berthold, Germany).

IEC-6 cells [5] = experiment: Nitrite determination (Griess) in IEC-6 culture medium; type: cell-based, rat; details: CM stimulation; 17.2±0.9 μM with CM alone, 1.4±0.3 μM unstimulated
Experimental: (§5) FIG. 8C is a picture of a Western blot illustrating that cytokine-induced iNOS protein expression is inhibited in IEC-6 cells by induction of HO-1 or treatment with CO. IEC-6 cells were treated with a cytokine mixture (CM) containing TNF-α (10 ng/ml), IL-1β (500 U/ml), and IFN-γ (1000 U/ml) for 24 hours. CO treatment (250 ppm) was initiated 1 hour prior to administration of CM and maintained throughout the duration of the experiment. Cobalt protoporphyrin (CoPP) was administered 16 hours prior to CM treatment. CM increased IEC-6 cell iNOS protein. Both CO and CoPP inhibited cytokine-induced increase in iNOS protein. The presence (+) or absence (−) of each treatment (cytokine mixture (CM), CO exposure (CO), and cobalt protoporphyrin exposure (CoPP)) is indicated beneath each lane of the Western blot.
FIG. 8D is a bar graph illustrating that the nitrite levels in supernatantants of IEC-6 cells that are exposed to CM and either CO or CoPP are lower than those of IEC-6 cells exposed to CM and air (as determined by Griess assay). Cytokine stimulation increased nitrite to 17.2±0.9 μM compared to 1.4±0.3 μM in unstimulated controls (P<0.01). […] Black bars=air exposed cells; gray bars=CO exposed cells; and cross-hatched bars=CoPP exposed cells. […]
Nitrite (NO2^−) was measured in the culture medium using the Griess method.

nitrosotyrosines = experiment: Western blot of ileal mucosal lysates (protein nitration); type: in vivo, rat; details: H/F neonatal rats + CO, ileal mucosa
Experimental: as §2, with “The last 2 cm of terminal ileum was harvested for morphological studies, and mucosal scrapings were collected for detection of protein.” left out
as §4

COX-2 = experiment: Western blot of ileal mucosal lysates (COX-2); type: in vivo, rat; details: H/F neonatal rats + CO, ileal mucosa
Experimental: as §2, with “The last 2 cm of terminal ileum was harvested for morphological studies, and mucosal scrapings were collected for detection of protein.” left out
as §4

IL-1β [6] = experiment: Western blot of ileal mucosal lysates (IL-1β); type: in vivo, rat; details: H/F neonatal rats + CO, ileal mucosa
Experimental: as §2, with “The last 2 cm of terminal ileum was harvested for morphological studies, and mucosal scrapings were collected for detection of protein.” left out
as §4

iNOS [7] = experiment: iNOS protein expression in IEC-6 cells by Western blot; type: cell-based, rat; details: 24 hours, CO 250 ppm from 1 hour before; for Cytokine-induced increase in iNOS protein in IEC-6 cells: CM: TNF-α 10 ng/ml, IL-1β 500 U/ml, IFN-γ 1000 U/ml, CoPP 16 hours before
Experimental: FIG. 8A is a picture of a Western blot illustrating (at 24 hours) that iNOS protein expression is inhibited in lipopolysaccharide (LPS) and/or hypoxia (1% oxygen) treated IEC-6 cells. CO treatment (250 ppm) was initiated 1 hour before the addition of LPS/hypoxia and maintained throughout the experiment. The combination of LPS (10 or 100 ng/ml) plus hypoxia increased iNOS protein expression, an effect that was inhibited by CO. The presence (+) or absence (−) of each treatment (lipopolysaccharide (lps), hypoxia exposure (hypoxia) and CO exposure (CO)) is indicated beneath each lane of the Western blot.
as §5
The rat small-intestinal epithelial cell line IEC-6 was obtained from the American Type Culture Collection (Manassas, Va.). […]
as §4

HO-1 = experiment: Western blot of ileal mucosal lysates (HO-1); type: in vivo, rat; details: H/F neonatal rats + CO (data not shown)
Experimental: as §2, with “The last 2 cm of terminal ileum was harvested for morphological studies, and mucosal scrapings were collected for detection of protein.” left out
as §4

neonatal rat ileum [8] = experiment: TUNEL staining of ileal whole mounts in the NEC model; type: in vivo; details: H/F neonatal rats, CO 250 ppm 1 h/day days 1-3, ileum day 4
Experimental: as §2, §3

[9] = TNF-α 10 ng/ml + ActD 200 ng/ml, 18 hours, CO 250 ppm from 1 hour before
[10] = Breast-fed + CO (250 ppm, 1 h/day, days 1-3), total n=7
[11] = Formula-Fed/Hypoxia + CO (250 ppm, 1 h/day, days 1-3), total n=8

[C-]#[O+] [CO, carbon monoxide]
Effect on viability of IEC-6 cells, agent alone (IEC-6 cells [1]; CO alone, in vitro): no measurable effect
TNF-α/ActD-induced IEC-6 cell death (in words) (IEC-6 cells [1]; [9]): significantly decreased
IEC-6 cell viability compared to untreated controls (IEC-6 cells [1]; TNF-α 10 ng/ml + ActD 200 ng/ml, 18 hours, CO 250 ppm from 1 hour before, 24±2.1% without CO): 54±5.6%
Serum IL-1β increase compared to breast fed controls (IL-1β [2]): 2.5 fold
Serum TNF-α increase compared to breast fed controls (TNF-α): 3 fold
Gross Changes (n): Bowel wall necrosis (neonatal rat ileum [3]; [10]): 0 n
Gross Changes (n): Pneumatosis intestinalis (neonatal rat ileum [3]; [10]): 0 n
Microscopic Changes (n): Stromal neutrophils (neonatal rat ileum [3]; [10]): 0 n
Microscopic Changes (n): Vacuolization (neonatal rat ileum [3]; [10]): 1 n
Microscopic Changes (n): Villous atrophy (neonatal rat ileum [3]; [10]): 0 n
Gross Changes (n): Bowel wall necrosis (neonatal rat ileum [3]; [11]): 2 n
Gross Changes (n): Pneumatosis intestinalis (neonatal rat ileum [3]; [11]): 1 n
Microscopic Changes (n): Stromal neutrophils (neonatal rat ileum [3]; [11]): 1 n
Microscopic Changes (n): Vacuolization (neonatal rat ileum [3]; [11]): 3 n
Microscopic Changes (n): Villous atrophy (neonatal rat ileum [3]; [11]): 2 n
Development of experimental NEC (neonatal rat ileum [3]; H/F (hypoxia/formula fed) neonatal rats, CO 250 ppm 1 h/day days 1-3, day 4): significantly protected
Effect on gross or microscopic evaluation (neonatal rat ileum [3]; breast fed neonatal rats, CO 250 ppm 1 h/day days 1-3, day 4): no effect
Ileal iNOS protein (iNOS [4]): markedly decreased
Transcriptional activation of the iNOS promoter, fold increase (rat iNOS promoter): 1.7±0.2 fold
Nitrite levels in supernatants of cytokine-stimulated IEC-6 cells (IEC-6 cells [5]): 9.8 ± 0.7 µM
Ileal nitrosotyrosines (protein nitration) (nitrosotyrosines): markedly decreased
Ileal COX-2 protein expression (COX-2): decreased expression
Ileal IL-1β protein expression (IL-1β [6]): decreased expression
Cytokine-induced increase in iNOS protein in IEC-6 cells (iNOS [7]): inhibited
LPS/hypoxia-induced iNOS protein in IEC-6 cells (iNOS [7]; LPS 10 or 100 ng/ml + 1% oxygen): inhibited
Ileal HO-1 expression (HO-1): decreased expression
TUNEL staining for cell death (neonatal rat ileum [8]): diminished

C=CC1=C(C)c2cc3[n-]c(cc4nc(cc5[n-]c(cc1n2)c(C)c5CCC(=O)[O-])C(CCC(=O)[O-])=C4C)c(C)c3C=C.[Co+2].[H+].[H+] [CoPP, cobalt protoporphyrin, reference compound]
TNF-α/ActD-induced IEC-6 cell death (in words) (IEC-6 cells [1]; [9]): significantly decreased
Nitrite levels in supernatants of cytokine-stimulated IEC-6 cells (IEC-6 cells [5]): 10.4 ± 1.0 µM
Cytokine-induced increase in iNOS protein in IEC-6 cells (iNOS [7]): inhibited
